# Numbers after ± are expanded uncertainties.
# Assay: Boiling temperature at pressure P
# Settings: 101 kPa; Liquid; Ebulliometric method (Recirculating still)
row,Compound,Boiling temperature at pressure P
1,CCOC(C)=O [ethyl acetate],77.1 ± 1.6 °C
2,OC1CCCC1 [cyclopentanol],139.4 ± 1.6 °C
3,CC(=O)CC(C)C [4-methylpentan-2-one],117.4 ± 1.6 °C
4,O=Cc1ccco1 [2-furaldehyde],162 ± 1.6 °C
